According to ChEMBL document CHEMBL1772973, “Design, synthesis, radiolabeling, and in vitro and in vivo evaluation of bridgehead iodinated analogues of N-{2-[4-(2-methoxyphenyl)piperazin-1-yl]ethyl}-N-(pyridin-2-yl)cyclohexanecarboxamide (WAY-100635) as potential SPECT ligands for the 5-HT1A receptor” (J Med Chem, 2011):

Key:
Assay type in all cases: ADME, organism-based
Liver [1] = assay: Biodistribution in Wistar rat liver at 7 MBq, iv after 45 mins; details: in vivo, 0.75 h
Blood [2] = assay: Biodistribution in Wistar rat blood at 7 MBq, iv after 45 mins; details: in vivo, 0.75 h
Heart [3] = assay: Biodistribution in Wistar rat heart at 7 MBq, iv after 45 mins; details: in vivo, 0.75 h
Striatum [4] = assay: Biodistribution in Wistar rat striatum at 7 MBq, iv after 45 mins; details: in vivo, 0.75 h
Occipital cortex [5] = assay: Biodistribution in Wistar rat occipital cortex at 7 MBq, iv after 45 mins; details: in vivo, 0.75 h
Hippocampus [6] = assay: Biodistribution in Wistar rat hippocampus at 7 MBq, iv after 45 mins; details: in vivo, 0.75 h
Rattus norvegicus [7] = assay: Biodistribution in Wistar rat rest cortex at 7 MBq, iv after 45 mins; details: in vivo, 0.75 h
Rattus norvegicus [8] = assay: Biodistribution in Wistar rat frontal cortex at 7 MBq, iv after 45 mins; details: in vivo, 0.75 h
Cerebellum [9] = assay: Biodistribution in Wistar rat cerebellum at 7 MBq, iv after 45 mins; details: in vivo, 0.75 h
Kidney [10] = assay: Biodistribution in Wistar rat kidney at 7 MBq, iv after 45 mins; details: in vivo, 0.75 h
Lung [11] = assay: Biodistribution in Wistar rat lung at 7 MBq, iv after 45 mins; details: in vivo, 0.75 h
Blood [12] = assay: Biodistribution in Wistar rat blood at 7 MBq, iv after 15 mins; details: in vivo, 0.25 h
Heart [13] = assay: Biodistribution in Wistar rat heart at 7 MBq, iv after 15 mins; details: in vivo, 0.25 h
Lung [14] = assay: Biodistribution in Wistar rat lung at 7 MBq, iv after 15 mins; details: in vivo, 0.25 h
Liver [15] = assay: Biodistribution in Wistar rat liver at 7 MBq, iv after 15 mins; details: in vivo, 0.25 h
Kidney [16] = assay: Biodistribution in Wistar rat kidney at 7 MBq, iv after 15 mins; details: in vivo, 0.25 h
Thyroid gland [17] = assay: Biodistribution in Wistar rat thyroid assessed per organ at 7 MBq, iv after 15 mins; details: in vivo, 0.25 h
Rattus norvegicus [18] = assay: Biodistribution in Wistar rat frontal cortex at 7 MBq, iv after 15 mins; details: in vivo, 0.25 h
Occipital cortex [19] = assay: Biodistribution in Wistar rat occipital cortex at 7 MBq, iv after 15 mins; details: in vivo, 0.25 h
Rattus norvegicus [20] = assay: Biodistribution in Wistar rat rest cortex at 7 MBq, iv after 15 mins; details: in vivo, 0.25 h
Striatum [21] = assay: Biodistribution in Wistar rat striatum at 7 MBq, iv after 15 mins; details: in vivo, 0.25 h
Hippocampus [22] = assay: Biodistribution in Wistar rat hippocampus at 7 MBq, iv after 15 mins; details: in vivo, 0.25 h
Cerebellum [23] = assay: Biodistribution in Wistar rat cerebellum at 7 MBq, iv after 15 mins; details: in vivo, 0.25 h
Blood [24] = assay: Biodistribution in Wistar rat blood at 7 MBq, iv after 120 mins; details: in vivo, 2 h
Heart [25] = assay: Biodistribution in Wistar rat heart at 7 MBq, iv after 120 mins; details: in vivo, 2 h
Lung [26] = assay: Biodistribution in Wistar rat lung at 7 MBq, iv after 120 mins; details: in vivo, 2 h
Liver [27] = assay: Biodistribution in Wistar rat liver at 7 MBq, iv after 120 mins; details: in vivo, 2 h
Kidney [28] = assay: Biodistribution in Wistar rat kidney at 7 MBq, iv after 120 mins; details: in vivo, 2 h
Thyroid gland [29] = assay: Biodistribution in Wistar rat thyroid assessed per organ at 7 MBq, iv after 120 mins; details: in vivo, 2 h
Rattus norvegicus [30] = assay: Biodistribution in Wistar rat frontal cortex at 7 MBq, iv after 120 mins; details: in vivo, 2 h
Occipital cortex [31] = assay: Biodistribution in Wistar rat occipital cortex at 7 MBq, iv after 120 mins; details: in vivo, 2 h
Rattus norvegicus [32] = assay: Biodistribution in Wistar rat rest cortex at 7 MBq, iv after 120 mins; details: in vivo, 2 h
Striatum [33] = assay: Biodistribution in Wistar rat striatum at 7 MBq, iv after 120 mins; details: in vivo, 2 h
Hippocampus [34] = assay: Biodistribution in Wistar rat hippocampus at 7 MBq, iv after 120 mins; details: in vivo, 2 h
Cerebellum [35] = assay: Biodistribution in Wistar rat cerebellum at 7 MBq, iv after 120 mins; details: in vivo, 2 h
Nucleic Acid [36] = assay: Ratio of drug level in cerebellum to hippocampus in Wistar rat at 7 MBq, iv after 45 mins; details: in vivo, 0.75 h
Nucleic Acid [37] = assay: Ratio of drug level in cerebellum to occipital cortex in Wistar rat at 7 MBq, iv after 45 mins; details: in vivo, 0.75 h
Nucleic Acid [38] = assay: Ratio of drug level in cerebellum to frontal cortex in Wistar rat at 7 MBq, iv after 45 mins; details: in vivo, 0.75 h
Nucleic Acid [39] = assay: Ratio of drug level in cerebellum to striatum in Wistar rat at 7 MBq, iv after 45 mins; details: in vivo, 0.75 h

Drug uptake (Liver [1]): 2.08 % ID/g
Drug uptake (Blood [2]): 0.2 % ID/g
Drug uptake (Heart [3]): 0.14 % ID/g
Drug uptake (Striatum [4]): 0.07 % ID/g
Drug uptake (Occipital cortex [5]): 0.13 % ID/g
Drug uptake (Hippocampus [6]): 0.18 % ID/g
Drug uptake (Rattus norvegicus [7]): 0.09 % ID/g
Drug uptake (Rattus norvegicus [8]): 0.11 %ID
Drug uptake (Cerebellum [9]): 0.08 % ID/g
Drug uptake (Kidney [10]): 5.47 % ID/g
Drug uptake (Lung [11]): 0.3 % ID/g
Drug uptake (Blood [12]): 0.18 % ID/g
Drug uptake (Heart [13]): 0.22 % ID/g
Drug uptake (Lung [14]): 0.59 % ID/g
Drug uptake (Liver [15]): 2.38 % ID/g
Drug uptake (Kidney [16]): 5.54 % ID/g
Drug uptake (Thyroid gland [17]): 0.28 %ID
Drug uptake (Rattus norvegicus [18]): 0.34 % ID/g
Drug uptake (Occipital cortex [19]): 0.37 % ID/g
Drug uptake (Rattus norvegicus [20]): 0.28 % ID/g
Drug uptake (Striatum [21]): 0.23 % ID/g
Drug uptake (Hippocampus [22]): 0.44 % ID/g
Drug uptake (Cerebellum [23]): 0.25 % ID/g
Drug uptake (Blood [24]): 0.22 % ID/g
Drug uptake (Heart [25]): 0.12 % ID/g
Drug uptake (Lung [26]): 0.19 % ID/g
Drug uptake (Liver [27]): 1.97 % ID/g
Drug uptake (Kidney [28]): 3.12 % ID/g
Drug uptake (Thyroid gland [29]): 0.25 %ID
Drug uptake (Rattus norvegicus [30]): 0.04 % ID/g
Drug uptake (Occipital cortex [31]): 0.04 % ID/g
Drug uptake (Rattus norvegicus [32]): 0.03 % ID/g
Drug uptake (Striatum [33]): 0.03 % ID/g
Drug uptake (Hippocampus [34]): 0.05 % ID/g
Drug uptake (Cerebellum [35]): 0.04 % ID/g
Ratio (Nucleic Acid [36]): 2.38
Ratio (Nucleic Acid [37]): 1.73
Ratio (Nucleic Acid [38]): 1.44
Ratio (Nucleic Acid [39]): 0.93
Compound: O=C(N(CCN1CCN(c2ccccc2O)CC1)c1ccccn1)C12C3C4C1C1C2C3C41[123I] (centres undefined)
